Measurements published in patent publication US12414980B2, “Pharmaceutical composition comprising RUNX3 protein and CDK4 inhibitor or mTOR inhibitor cotreatment for prevention or treatment of cancer” (GeneCraft Inc., priority 2020, dated 2025).

Columns and labels:
[1] = system: Runx3-BRD2 complex; experiment: Runx3-BRD2 complex formation after serum stimulation, immunoprecipitation (IP) and immunoblotting (IB); assay type: cell-based; conditions: for time for which the binding of Runx3 and BRD2 was maintained: after serum stimulation
[2] = system: p300-RUNX3 complex; conditions: treatment with MEK1 inhibitor (1 μM per methods); FIG. 3a
Description: Transient transfection was performed in all cell lines using lipofectamine plus reagent and lipofectamine (Invitrogen). Cell lysates were incubated with an appropriate monoclonal or polyclonal antibody (2 μg of antibody/500 μg of lysate sample) at 4° C. for 3 hours, followed by incubation with protein G-Sepharose beads (Amersham Pharmacia Biotech, Piscataway, NJ, USA). For the detection of endogenous proteins at 4° C. for 1 hour, the lysate was incubated with an appropriate monoclonal or polyclonal antibody (1:1000˜1:3000) at 4° C. for 6 to 12 hours, and then protein G-Sepharose beads (Amersham Pharmacia Biotech) were heated at 4° C. for 3 hours. The immune precipitate was digested on an SDS-polyacrylamide gel electrophoresis (SDS-PAGE) gel and transferred to a PVDF membrane (Millipore, Billerica, MA, USA). The membrane was blocked, immunoblotted with an appropriate antibody, treated with ECL solution (Amersham Pharmacia Biotech), and visualized in Amersham™ Imager 600 (GE Healthcare, Chicago, IL, USA).
Before serum starvation, a knockdown assay was performed by transfecting HEK293 cells with 50 nM siRNA using RNAiMAX (Invitrogen, CA, USA). Cells were harvested at the designated time points after serum stimulation. […] HDAC4 siRNA was purchased from Cell Signaling Technology.

[3] = system: normal cells; conditions: cited from earlier work
[4] = system: H460 lung cancer cell line; conditions: administered simultaneously with adenovirus expressing Runx3 protein, FIG. 8
Description: H460 cells (ATCC, Manassas, VA, USA) and H460 stable cells were maintained in RPMI 1640 medium (Gibco BRL) supplemented with 10% fetal bovine serum (Gibco BRL) and 1% penicillin/streptomycin (Invitrogen). All the cell lines were cultured in a 37° C., 5% CO2 incubator.
(§1) Cells were harvested and processed using FITC-Annexin V Apoptosis Detection Kit I (BD Biosciences, San Jose, CA, USA) and propidium iodide DNA staining protocol. Apoptosis and cell cycle were analyzed by flow cytometry on a BD FACS caliber machine (BD Biosciences). All data were analyzed using FlowJo software (https://www.flowjo.com).
Particularly, each cell line prepared in Experimental Methods 1 and 4 was harvested and processed using FITC-Annexin V Apoptosis Detection Kit I (BD Biosciences, San Jose, CA, USA) and propidium iodide DNA staining protocol. Apoptosis and cell cycle were analyzed by flow cytometry on a BD FACS caliber machine (BD Biosciences). All data were analyzed using FlowJo software (https://www.flowjo.com).

[5] = system: PANC1 pancreatic cancer cell line; conditions: administered simultaneously with adenovirus expressing Runx3 protein, FIG. 8
Description: as §1

[6] = system: ARF; experiment: time-dependent expression of ARF after serum stimulation, immunoblotting (IB); assay type: cell-based; conditions: suppression of mTOR using rapamycin (100 nM per methods); FIG. 3h
Description: HDAC4 siRNA was purchased from Cell Signaling Technology.

Row | Compound | binding of BRD2-RUNX3 ([1]; treatment with MEK1 inhibitor (1 μM per methods), FIG. 3a) | binding of p300-RUNX3 [2] | physical binding between Runx3 and Brd2 8 hours after serum stimulation ([1]; CDK4 inhibitor at 1 nM) | time for which the binding of Runx3 and BRD2 was maintained ([1]; CDK4 inhibitor present at 11 nM, FIG. 5) | toxicity to normal cells ([3]; concentration of 11 nM) | cancer apoptotic effect versus adenovirus expressing Runx3 protein alone [4] | cancer apoptotic effect versus adenovirus expressing Runx3 protein alone [5] | time for which the binding of Runx3 and BRD2 was maintained ([1]; mTOR inhibitor present at 100 nM, FIG. 6) | maintenance of Rpa-RX3-AC ([1]; suppression of mTOR using rapamycin (100 nM per methods), FIG. 3h) | time to which the expression of ARF was extended [6] | cytotoxicity to normal cells ([3]; concentration of 100 nM)
1 | N#CC(=C(/N)Sc1ccccc1N)/C(C#N)=C(\N)Sc1ccccc1N [U0126] | inhibited | inhibited |  |  |  |  |  |  |  |  | 
2 | CC(=O)c1c(C)c2cnc(Nc3ccc(N4CCNCC4)cn3)nc2n(C2CCCC2)c1=O [PD0332991] |  |  | not observed | up to 8 hours | non-toxic | significantly increased | significantly increased |  |  |  | 
3 | CO[C@H]1C[C@@H]2CC[C@@H](C)[C@@](O)(O2)C(=O)C(=O)N2CCCC[C@H]2C(=O)O[C@H]([C@H](C)C[C@@H]2CC[C@@H](O)[C@H](OC)C2)CC(=O)[C@H](C)/C=C(\C)[C@@H](O)[C@@H](OC)C(=O)[C@H](C)C[C@H](C)/C=C/C=C/C=C/1C [rapamycin] |  |  |  |  |  | significantly increased | significantly increased | up to 8 hours | maintained | up to 8 hours | non-cytotoxic
